These compounds were tested against Glutamate receptor ionotropic, AMPA (Mus musculus, UniProt P23818+P23819+Q9Z2W8+Q9Z2W9). Conditions: not given.

Row | Compound | Ki [nM]
1 | Oc1nc2cc(C(F)(F)F)cc(-n3cccc3)c2nc1O | > 25000
2 | O=C(O)Cn1c(=O)c(=O)[nH]c2cc(C(F)(F)F)c(-n3cccc3)cc21 | 170
3 | O=[N+]([O-])c1cc2nc(O)c(O)nc2cc1-n1cccc1 | 400
4 | Oc1nc2cc(-n3cccc3)c(C(F)(F)F)cc2nc1O | 3000
5 | O=C(O)Cn1c(=O)c(=O)[nH]c2cc([N+](=O)[O-])c(-n3cccc3)cc21 | 70
6 | O=C(O)CCn1c(=O)c(=O)[nH]c2cc([N+](=O)[O-])c(-n3cccc3)cc21 | 330
7 | Oc1nc2cc(Cl)c(-n3cccc3)cc2nc1O | 20000
8 | O=c1[nH]c2cc(-n3cccc3)c([N+](=O)[O-])cc2n(C2CCCCC2)c1=O | 25000
9 | CCOC(=O)CCn1c(=O)c(=O)[nH]c2cc(C(F)(F)F)c(-n3cccc3)cc21 | 580
10 | CCn1c(=O)c(=O)[nH]c2cc([N+](=O)[O-])c(-n3cccc3)cc21 | 850
11 | O=C(O)CCn1c(=O)c(=O)[nH]c2cc(C(F)(F)F)c(-n3cccc3)cc21 | 390
12 | O=c1[nH]c2cc(C(F)(F)F)c(-n3cccc3)cc2n(C2CCCCC2)c1=O | 1600
13 | O=c1[nH]c2cc([N+](=O)[O-])c(-n3cccc3)cc2n(C2CCCCC2)c1=O | 400
14 | CS(=O)(=O)c1cc2[nH]c(=O)c(=O)n(C3CCCCC3)c2cc1-n1cccc1 | 15000
15 | O=c1[nH]c2cc(Cl)c(-n3cccc3)cc2n(C2CCCCC2)c1=O | 10000
16 | CCOC(=O)Cn1c(=O)c(=O)[nH]c2cc([N+](=O)[O-])c(-n3cccc3)cc21 | 910
17 | CCOC(=O)CCn1c(=O)c(=O)[nH]c2cc([N+](=O)[O-])c(-n3cccc3)cc21 | 260

Now from value to compound:

Row | Ki [nM] | Compound
18 | > 25000 | COC(=O)Cn1c(=O)c(=O)[nH]c2cc(C(F)(F)F)c(-n3cccc3)cc21
19 | 20000 | CNC(=O)Cn1c(=O)c(=O)[nH]c2cc(C(F)(F)F)c(-n3cccc3)cc21
20 | 2700 | CCNC(=O)Cn1c(=O)c(=O)[nH]c2cc([N+](=O)[O-])c(-n3cccc3)cc21
21 | 3500 | O=c1[nH]c2cc([N+](=O)[O-])c(-n3cccc3)cc2n(C2CC2)c1=O
22 | 20000 | O=C(Cn1c(=O)c(=O)[nH]c2cc([N+](=O)[O-])c(-n3cccc3)cc21)NCc1ccccc1
23 | 2100 | O=C(Cn1c(=O)c(=O)[nH]c2cc([N+](=O)[O-])c(-n3cccc3)cc21)Nc1ccccc1
24 | 6000 | CCC(CC)Cn1c(=O)c(=O)[nH]c2cc([N+](=O)[O-])c(-n3cccc3)cc21
25 | 8000 | O=C(CCn1c(=O)c(=O)[nH]c2cc(C(F)(F)F)c(-n3cccc3)cc21)NCc1ccccc1
26 | 20000 | O=C(Cn1c(=O)c(=O)[nH]c2cc([N+](=O)[O-])c(-n3cccc3)cc21)NCCc1ccccc1

Each compound was assayed on Mus musculus (assay: In vivo AMPA antagonistic activity was determined by measuring ability to antagonize AMPA induced lethal convulsions in mice at 15 min upon intraperitoneal administration). Conditions: ip, 0.25 h.
Assay type: functional

Row | Compound | ED50 [mg/kg]
27 | O=C(O)Cn1c(=O)c(=O)[nH]c2cc(C(F)(F)F)c(-n3cccc3)cc21 | > 50
28 | O=[N+]([O-])c1cc2nc(O)c(O)nc2cc1-n1cccc1 | 21
29 | O=C(O)Cn1c(=O)c(=O)[nH]c2cc([N+](=O)[O-])c(-n3cccc3)cc21 | 30
30 | O=C(O)CCn1c(=O)c(=O)[nH]c2cc([N+](=O)[O-])c(-n3cccc3)cc21 | > 30
31 | CCn1c(=O)c(=O)[nH]c2cc([N+](=O)[O-])c(-n3cccc3)cc21 | > 50
32 | O=C(O)CCn1c(=O)c(=O)[nH]c2cc(C(F)(F)F)c(-n3cccc3)cc21 | > 50
33 | O=c1[nH]c2cc([N+](=O)[O-])c(-n3cccc3)cc2n(C2CCCCC2)c1=O | > 50
34 | CCOC(=O)Cn1c(=O)c(=O)[nH]c2cc([N+](=O)[O-])c(-n3cccc3)cc21 | > 50
35 | CCOC(=O)CCn1c(=O)c(=O)[nH]c2cc([N+](=O)[O-])c(-n3cccc3)cc21 | > 30
36 | NS(=O)(=O)c1cccc2c1c([N+](=O)[O-])cc1nc(O)c(O)nc12 [NBQX] | > 50

What follows are compounds tested on Mus musculus (assay: In vivo AMPA antagonistic activity was determined by measuring ability to antagonize AMPA induced lethal convulsions in mice at 60 min upon intraperitoneal administration). Conditions: ip, 1 h.
Assay type: functional

Row | Compound | ED50 [mg/kg]
37 | O=C(O)Cn1c(=O)c(=O)[nH]c2cc(C(F)(F)F)c(-n3cccc3)cc21 | > 50
38 | O=[N+]([O-])c1cc2nc(O)c(O)nc2cc1-n1cccc1 | 31
39 | O=C(O)Cn1c(=O)c(=O)[nH]c2cc([N+](=O)[O-])c(-n3cccc3)cc21 | 30
40 | O=C(O)CCn1c(=O)c(=O)[nH]c2cc([N+](=O)[O-])c(-n3cccc3)cc21 | > 30
41 | CCn1c(=O)c(=O)[nH]c2cc([N+](=O)[O-])c(-n3cccc3)cc21 | 12
42 | O=C(O)CCn1c(=O)c(=O)[nH]c2cc(C(F)(F)F)c(-n3cccc3)cc21 | > 50
43 | O=c1[nH]c2cc([N+](=O)[O-])c(-n3cccc3)cc2n(C2CCCCC2)c1=O | 22
44 | CCOC(=O)Cn1c(=O)c(=O)[nH]c2cc([N+](=O)[O-])c(-n3cccc3)cc21 | 26
45 | CCOC(=O)CCn1c(=O)c(=O)[nH]c2cc([N+](=O)[O-])c(-n3cccc3)cc21 | 14
46 | NS(=O)(=O)c1cccc2c1c([N+](=O)[O-])cc1nc(O)c(O)nc12 [NBQX] | > 50
